Results on 22 compounds are retold here after ChEMBL document CHEMBL6153030, “Design, synthesis, and biological evaluation of novel pleuromutilin derivatives with methicillin-resistant Staphylococcus aureus -targeting phenol linker groups” (Eur J Med Chem, 2025).

What all share (assay type): functional
For one experiment, the system named is Streptococcus pneumoniae. Kind of experiment: Antibacterial activity against Streptococcus pneumoniae ATCC 49619 assessed as inhibition of bacterial growth incubated for 96 hrs by broth microdilution method. A general note: Dilution methods test growth across graded concentrations, often in twofold steps.
Experiment [1] has as its system Staphylococcus aureus. Kind of experiment: Antibacterial activity against Staphylococcus aureus ATCC 29213 assessed as inhibition of bacterial growth incubated for 96 hrs by broth microdilution method.
The subject of experiment [2] is Staphylococcus aureus. The experiment is described as follows: Antibacterial activity against methicillin-resistant Staphylococcus aureus ATCC43300 assessed as inhibition of bacterial growth incubated for 96 hrs by broth microdilution method.
In experiment [3] the test system is Staphylococcus epidermidis. The experiment is described as follows: Antibacterial activity against methicillin-resistant Staphylococcus epidermidis ATCC 51625 assessed as inhibition of bacterial growth incubated for 96 hrs by broth microdilution method.
The subject of another experiment is Escherichia coli. Kind of experiment: Antibacterial activity against Escherichia coli ATCC 25922 assessed as inhibition of bacterial growth incubated for 96 hrs by broth microdilution method.

≈ marks a conversion by molar mass, not a printed value.

The term MIC denotes the smallest concentration in the dilution series that meets the test's criterion for growth inhibition. As to `C=C[C@]1(C)C[C@@H](OC(=O)CSc2cccc(OCc3ccc(-c4ccccc4C#N)cc3)c2)[C@]2(C)[C@H](C)CC[C@]3(CCC(=O)[C@H]32)[C@@H](C)[C@@H]1O`, the MIC is 2 µg/mL (≈ 2.95 µM) in the experiment with Streptococcus pneumoniae; 4 µg/mL (≈ 5.9 µM) with Staphylococcus aureus [1]; 2 µg/mL (≈ 2.95 µM) in the experiment on Staphylococcus aureus [2]; 8 µg/mL (≈ 11.8 µM) in experiment [3]; greater than 64 µg/mL with Escherichia coli.

With `C=C[C@]1(C)C[C@@H](OC(=O)CSc2ccccc2OCCCC)[C@]2(C)[C@H](C)CC[C@]3(CCC(=O)[C@H]32)[C@@H](C)[C@@H]1O`, the minimal inhibitory concentration (MIC) in the experiment on Streptococcus pneumoniae is 0.5 µg/mL (≈ 0.921 µM); in the experiment with Staphylococcus aureus [1] it was 0.5 µg/mL (≈ 0.921 µM); in the experiment on Staphylococcus aureus [2], 0.5 µg/mL (≈ 0.921 µM); in experiment [3], 0.25 µg/mL (≈ 0.461 µM); with Escherichia coli it was greater than 64 µg/mL.

With `C=C[C@]1(C)C[C@@H](OC(=O)CSc2ccc(OCc3ccc(C)cc3)cc2)[C@]2(C)[C@H](C)CC[C@]3(CCC(=O)[C@H]32)[C@@H](C)[C@@H]1O`, the minimal inhibitory concentration (MIC) in the experiment with Streptococcus pneumoniae was 16 µg/mL (≈ 27.1 µM); in the experiment on Staphylococcus aureus [1], 16 µg/mL (≈ 27.1 µM); in the experiment with Staphylococcus aureus [2], 16 µg/mL (≈ 27.1 µM); in experiment [3], 16 µg/mL (≈ 27.1 µM); in the experiment on Escherichia coli, greater than 64 µg/mL.

Regarding `C=C[C@]1(C)C[C@@H](OC(=O)CSc2ccccc2OCc2ccc(C)cc2)[C@]2(C)[C@H](C)CC[C@]3(CCC(=O)[C@H]32)[C@@H](C)[C@@H]1O`, the minimum inhibitory concentration (MIC) was 16 µg/mL (≈ 27.1 µM) with Streptococcus pneumoniae; 16 µg/mL (≈ 27.1 µM) in the experiment on Staphylococcus aureus [1]; 32 µg/mL (≈ 54.2 µM) in the experiment with Staphylococcus aureus [2]; 32 µg/mL (≈ 54.2 µM) in experiment [3]; greater than 64 µg/mL with Escherichia coli.

In the case of `C=C[C@]1(C)C[C@@H](OC(=O)CSc2cccc(OCC#CC)c2)[C@]2(C)[C@H](C)CC[C@]3(CCC(=O)[C@H]32)[C@@H](C)[C@@H]1O`, the minimum inhibitory concentration (MIC) in the experiment with Streptococcus pneumoniae is less than 0.031 µg/mL; in the experiment with Staphylococcus aureus [1] it was 0.125 µg/mL (≈ 0.232 µM); in the experiment on Staphylococcus aureus [2], 0.125 µg/mL (≈ 0.232 µM); in experiment [3] it was 0.125 µg/mL (≈ 0.232 µM); with Escherichia coli it was greater than 64 µg/mL.

For `C=C[C@]1(C)C[C@@H](OC(=O)CSc2ccc(OCC(=O)N3CCS(=O)(=O)CC3)cc2)[C@]2(C)[C@H](C)CC[C@]3(CCC(=O)[C@H]32)[C@@H](C)[C@@H]1O`, the MIC is 0.25 µg/mL (≈ 0.378 µM) in the experiment on Streptococcus pneumoniae; less than 0.031 µg/mL with Staphylococcus aureus [1]; less than 0.031 µg/mL with Staphylococcus aureus [2]; less than 0.031 µg/mL in experiment [3]; greater than 64 µg/mL with Escherichia coli.

Consider `C=C[C@]1(C)C[C@@H](OC(=O)CSc2ccc(OCc3ccc(-c4ccccc4C#N)cc3)cc2)[C@]2(C)[C@H](C)CC[C@]3(CCC(=O)[C@H]32)[C@@H](C)[C@@H]1O`, for which the MIC with Streptococcus pneumoniae was 2 µg/mL (≈ 2.95 µM); in the experiment on Staphylococcus aureus [1] it was 4 µg/mL (≈ 5.9 µM); in the experiment on Staphylococcus aureus [2] it was 2 µg/mL (≈ 2.95 µM); in experiment [3], 4 µg/mL (≈ 5.9 µM); with Escherichia coli, greater than 64 µg/mL.

On to `C=C[C@]1(C)C[C@@H](OC(=O)CSc2ccc(O)cc2)[C@]2(C)[C@H](C)CC[C@]3(CCC(=O)[C@H]32)[C@@H](C)[C@@H]1O`, for which the minimal inhibitory concentration (MIC) was 0.125 µg/mL (≈ 0.257 µM) with Streptococcus pneumoniae; 0.062 µg/mL (≈ 0.127 µM) in the experiment with Staphylococcus aureus [1]; 0.062 µg/mL (≈ 0.127 µM) with Staphylococcus aureus [2]; 0.062 µg/mL (≈ 0.127 µM) in experiment [3]; greater than 64 µg/mL in the experiment on Escherichia coli.

With `C=C[C@]1(C)C[C@@H](OC(=O)CSc2ccccc2OCc2ccc(C(=O)OC(C)(C)C)cc2)[C@]2(C)[C@H](C)CC[C@]3(CCC(=O)[C@H]32)[C@@H](C)[C@@H]1O`, the MIC with Streptococcus pneumoniae was 16 µg/mL (≈ 23.6 µM); in the experiment with Staphylococcus aureus [1], 16 µg/mL (≈ 23.6 µM); with Staphylococcus aureus [2], 32 µg/mL (≈ 47.3 µM); in experiment [3], 16 µg/mL (≈ 23.6 µM); with Escherichia coli, greater than 64 µg/mL.

As to `C=CCCOc1ccccc1SCC(=O)O[C@@H]1C[C@@](C)(C=C)[C@@H](O)[C@H](C)[C@]23CCC(=O)[C@H]2[C@@]1(C)[C@H](C)CC3`, the minimal inhibitory concentration (MIC) with Streptococcus pneumoniae is less than 0.031 µg/mL; with Staphylococcus aureus [1], less than 0.031 µg/mL; in the experiment on Staphylococcus aureus [2], 0.125 µg/mL (≈ 0.231 µM); in experiment [3], 0.031 µg/mL (≈ 0.0573 µM); in the experiment on Escherichia coli, greater than 64 µg/mL.

For the compound `C=C[C@]1(C)C[C@@H](OC(=O)CSc2ccc(OCc3ccc(C(=O)OC(C)(C)C)cc3)cc2)[C@]2(C)[C@H](C)CC[C@]3(CCC(=O)[C@H]32)[C@@H](C)[C@@H]1O`, the MIC with Streptococcus pneumoniae was 8 µg/mL (≈ 11.8 µM); in the experiment on Staphylococcus aureus [1] it was 4 µg/mL (≈ 5.91 µM); with Staphylococcus aureus [2], 32 µg/mL (≈ 47.3 µM); in experiment [3] it was 8 µg/mL (≈ 11.8 µM); in the experiment on Escherichia coli, greater than 64 µg/mL.

`C=C[C@]1(C)C[C@@H](OC(=O)CSc2cccc(OCCCC)c2)[C@]2(C)[C@H](C)CC[C@]3(CCC(=O)[C@H]32)[C@@H](C)[C@@H]1O`: the minimum inhibitory concentration (MIC) in the experiment with Streptococcus pneumoniae was 2 µg/mL (≈ 3.68 µM); in the experiment with Staphylococcus aureus [1] it was 2 µg/mL (≈ 3.68 µM); in the experiment with Staphylococcus aureus [2], 2 µg/mL (≈ 3.68 µM); in experiment [3], 1 µg/mL (≈ 1.84 µM); in the experiment with Escherichia coli, greater than 64 µg/mL.

Regarding `C=C[C@]1(C)C[C@@H](OC(=O)CSc2ccccc2O)[C@]2(C)[C@H](C)CC[C@]3(CCC(=O)[C@H]32)[C@@H](C)[C@@H]1O`, the MIC in the experiment with Streptococcus pneumoniae was 0.125 µg/mL (≈ 0.257 µM); in the experiment on Staphylococcus aureus [1], 0.125 µg/mL (≈ 0.257 µM); in the experiment with Staphylococcus aureus [2], 0.125 µg/mL (≈ 0.257 µM); in experiment [3], 0.125 µg/mL (≈ 0.257 µM); with Escherichia coli, greater than 64 µg/mL.

For the compound `C=C[C@]1(C)C[C@@H](OC(=O)CSc2cccc(OCc3ccc(C(=O)OC(C)(C)C)cc3)c2)[C@]2(C)[C@H](C)CC[C@]3(CCC(=O)[C@H]32)[C@@H](C)[C@@H]1O`, the minimal inhibitory concentration (MIC) with Streptococcus pneumoniae was 8 µg/mL (≈ 11.8 µM); with Staphylococcus aureus [1] it was 4 µg/mL (≈ 5.91 µM); in the experiment on Staphylococcus aureus [2] it was 32 µg/mL (≈ 47.3 µM); in experiment [3] it was 8 µg/mL (≈ 11.8 µM); in the experiment with Escherichia coli, greater than 64 µg/mL.

As to `C=C[C@]1(C)C[C@@H](OC(=O)CSc2ccc(OCCCC)cc2)[C@]2(C)[C@H](C)CC[C@]3(CCC(=O)[C@H]32)[C@@H](C)[C@@H]1O`, the minimum inhibitory concentration (MIC) is 0.5 µg/mL (≈ 0.921 µM) in the experiment on Streptococcus pneumoniae; 2 µg/mL (≈ 3.68 µM) with Staphylococcus aureus [1]; 1 µg/mL (≈ 1.84 µM) in the experiment with Staphylococcus aureus [2]; 0.5 µg/mL (≈ 0.921 µM) in experiment [3]; greater than 64 µg/mL in the experiment with Escherichia coli.

For the compound `C=C[C@]1(C)C[C@@H](OC(=O)CSc2cccc(OCc3ccc(C)cc3)c2)[C@]2(C)[C@H](C)CC[C@]3(CCC(=O)[C@H]32)[C@@H](C)[C@@H]1O`, the MIC with Streptococcus pneumoniae is 16 µg/mL (≈ 27.1 µM); with Staphylococcus aureus [1], 16 µg/mL (≈ 27.1 µM); in the experiment on Staphylococcus aureus [2], 16 µg/mL (≈ 27.1 µM); in experiment [3], 32 µg/mL (≈ 54.2 µM); in the experiment on Escherichia coli it was greater than 64 µg/mL.

For `C=C[C@]1(C)C[C@@H](OC(=O)CSc2ccccc2OCc2ccc(-c3ccccc3C#N)cc2)[C@]2(C)[C@H](C)CC[C@]3(CCC(=O)[C@H]32)[C@@H](C)[C@@H]1O`, the MIC is 2 µg/mL (≈ 2.95 µM) in the experiment on Streptococcus pneumoniae; 2 µg/mL (≈ 2.95 µM) in the experiment with Staphylococcus aureus [1]; 2 µg/mL (≈ 2.95 µM) with Staphylococcus aureus [2]; 4 µg/mL (≈ 5.9 µM) in experiment [3]; greater than 64 µg/mL in the experiment on Escherichia coli.

Take `C=C[C@]1(C)C[C@@H](OC(=O)CSc2cccc(O)c2)[C@]2(C)[C@H](C)CC[C@]3(CCC(=O)[C@H]32)[C@@H](C)[C@@H]1O`: the MIC with Streptococcus pneumoniae was 0.125 µg/mL (≈ 0.257 µM); in the experiment with Staphylococcus aureus [1], 0.125 µg/mL (≈ 0.257 µM); in the experiment with Staphylococcus aureus [2], 0.062 µg/mL (≈ 0.127 µM); in experiment [3], 0.125 µg/mL (≈ 0.257 µM); in the experiment on Escherichia coli it was greater than 64 µg/mL.

For `C=C[C@]1(C)C[C@@H](OC(=O)CSc2ccc(OCC#CC)cc2)[C@]2(C)[C@H](C)CC[C@]3(CCC(=O)[C@H]32)[C@@H](C)[C@@H]1O`, the MIC with Streptococcus pneumoniae is 0.062 µg/mL (≈ 0.115 µM); with Staphylococcus aureus [1] it was 0.25 µg/mL (≈ 0.464 µM); in the experiment on Staphylococcus aureus [2], 0.25 µg/mL (≈ 0.464 µM); in experiment [3] it was 0.125 µg/mL (≈ 0.232 µM); in the experiment with Escherichia coli, greater than 64 µg/mL.

On to `C=CCCOc1cccc(SCC(=O)O[C@@H]2C[C@@](C)(C=C)[C@@H](O)[C@H](C)[C@]34CCC(=O)[C@H]3[C@@]2(C)[C@H](C)CC4)c1`, for which the MIC in the experiment with Streptococcus pneumoniae was 0.5 µg/mL (≈ 0.925 µM); in the experiment on Staphylococcus aureus [1] it was 0.5 µg/mL (≈ 0.925 µM); in the experiment on Staphylococcus aureus [2] it was 0.5 µg/mL (≈ 0.925 µM); in experiment [3], 0.25 µg/mL (≈ 0.462 µM); with Escherichia coli, greater than 64 µg/mL.

Take `C=CCCOc1ccc(SCC(=O)O[C@@H]2C[C@@](C)(C=C)[C@@H](O)[C@H](C)[C@]34CCC(=O)[C@H]3[C@@]2(C)[C@H](C)CC4)cc1`: the MIC in the experiment with Streptococcus pneumoniae is 0.125 µg/mL (≈ 0.231 µM); with Staphylococcus aureus [1] it was 0.25 µg/mL (≈ 0.462 µM); in the experiment on Staphylococcus aureus [2] it was 0.25 µg/mL (≈ 0.462 µM); in experiment [3], 0.125 µg/mL (≈ 0.231 µM); with Escherichia coli, greater than 64 µg/mL.

As to `C=C[C@]1(C)C[C@@H](OC(=O)CSc2ccccc2OCC#CC)[C@]2(C)[C@H](C)CC[C@]3(CCC(=O)[C@H]32)[C@@H](C)[C@@H]1O`, the MIC with Streptococcus pneumoniae is less than 0.031 µg/mL; in the experiment with Staphylococcus aureus [1], 0.125 µg/mL (≈ 0.232 µM); in the experiment with Staphylococcus aureus [2], 0.125 µg/mL (≈ 0.232 µM); in experiment [3] it was 0.125 µg/mL (≈ 0.232 µM); with Escherichia coli it was greater than 64 µg/mL.
